Experimental data reported in PubChem BioAssay AID248 (DTP/NCI, 2004).
Values joined by “and” are separate entries in the source; they are usually repeats but may differ in a detail not shown here. Equal entries are not always repeated. Inconclusive results and toxic doses are left out.

Tested on: L1210 leukemia ip in BDF1 mice, survival T/C
Test: NCI In Vivo Anticancer Drug Screen. Data for tumor model L1210 Leukemia (intraperitoneal) in B6D2F1 (BDF1) mice
Settings: endpoint: mean survival time, higher = longer survival
Outline: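 Value reflects the ratio of survival in compound-treated mice to survival in vehicle-treated controls, with both groups carrying the same transplanted tumor.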

[1] = dose: 100.0 mg/kg/injection, schedule: Q01DX009 (ip), vehicle: Klucel (hydroxypropylcellulose) (HPC)
[2] = dose: 200.0 mg/kg/injection, schedule: Q01DX009 (ip), vehicle: Klucel (hydroxypropylcellulose) (HPC)
[3] = dose: 400.0 mg/kg/injection, schedule: Q01DX009 (ip), vehicle: Klucel (hydroxypropylcellulose) (HPC)

## COc1cc2c3c(c4ccc(OC)c(OC)c4c2cc1OC)CN1CCC[C@@H]1C3
dose: 1.25 mg/kg/injection, schedule: Q01DX Z (im), vehicle: water
  T/C: 103 % of control
dose: 1.25 mg/kg/injection, schedule: Q01DX Z (ip), vehicle: water
  T/C: 103 % of control
dose: 1.25 mg/kg/injection, schedule: Q01DX Z (sc), vehicle: water
  T/C: 106 % of control
dose: 1.25 mg/kg/injection, schedule: Q02DX Z (ip), vehicle: water
  T/C: 105 % of control
dose: 2.2 mg/kg/injection, schedule: Q01DX Z (ip), vehicle: carboxymethylcellulose (CMC)
  T/C: 111 % of control
dose: 2.2 mg/kg/injection, schedule: Q01DX Z (ip), vehicle: other
  T/C: 107 % of control
dose: 2.5 mg/kg/injection, schedule: Q01DX Z (im), vehicle: water
  T/C: 111 % of control
dose: 2.5 mg/kg/injection, schedule: Q01DX Z (ip), vehicle: water
  T/C: 94 % of control and 106 % of control
dose: 2.5 mg/kg/injection, schedule: Q01DX Z (sc), vehicle: water
  T/C: 106 % of control
dose: 2.5 mg/kg/injection, schedule: Q02DX Z (ip), vehicle: water
  T/C: 109 % of control
dose: 2.5 mg/kg/injection, schedule: Q03DX Z (ip), vehicle: water
  T/C: 105 % of control
dose: 4.0 mg/kg/injection, schedule: Q01DX Z (ip), vehicle: water
  T/C: 94 % of control
dose: 4.4 mg/kg/injection, schedule: Q01DX Z (ip), vehicle: carboxymethylcellulose (CMC)
  T/C: 114 % of control and 117 % of control
dose: 5.0 mg/kg/injection, schedule: Q01DX005 (iv), vehicle: water
  T/C: 106 % of control
dose: 5.0 mg/kg/injection, schedule: Q01DX Z (im), vehicle: water
  T/C: 118 % of control
dose: 5.0 mg/kg/injection, schedule: Q01DX Z (ip), vehicle: water
  T/C: 103 % of control and 117 % of control and 124 % of control
dose: 5.0 mg/kg/injection, schedule: Q01DX Z (oral), vehicle: water
  T/C: 112 % of control and 115 % of control
dose: 5.0 mg/kg/injection, schedule: Q01DX Z (sc), vehicle: water
  T/C: 122 % of control
dose: 5.0 mg/kg/injection, schedule: Q02DX Z (ip), vehicle: water
  T/C: 95 % of control and 103 % of control
dose: 5.0 mg/kg/injection, schedule: Q03DX Z (ip), vehicle: water
  T/C: 103 % of control and 106 % of control
dose: 6.0 mg/kg/injection, schedule: Q01DX Z (ip), vehicle: water
  T/C: 109 % of control
dose: 6.6 mg/kg/injection, schedule: Q01DX Z (ip), vehicle: carboxymethylcellulose (CMC)
  T/C: 117 % of control and 118 % of control
dose: 6.6 mg/kg/injection, schedule: Q01DX Z (ip), vehicle: other
  T/C: 117 % of control
dose: 7.5 mg/kg/injection, schedule: Q01DX Z (ip), vehicle: water
  T/C: 115 % of control
dose: 8.0 mg/kg/injection, schedule: Q01DX Z (ip), vehicle: water
  T/C: 97 % of control and 101 % of control
dose: 9.0 mg/kg/injection, schedule: Q01DX Z (ip), vehicle: water
  T/C: 120 % of control
dose: 10.0 mg/kg/injection, schedule: Q01DX005 (iv), vehicle: water
  T/C: 114 % of control
dose: 10.0 mg/kg/injection, schedule: Q01DX Z (im), vehicle: water
  T/C: 97 % of control
dose: 10.0 mg/kg/injection, schedule: Q01DX Z (ip), vehicle: water
  T/C: 117 % of control
dose: 10.0 mg/kg/injection, schedule: Q01DX Z (sc), vehicle: water
  T/C: 100 % of control
dose: 10.0 mg/kg/injection, schedule: Q02DX Z (ip), vehicle: water
  T/C: 111 % of control and 112 % of control
dose: 10.0 mg/kg/injection, schedule: Q02DX Z (oral), vehicle: water
  T/C: 121 % of control
dose: 12.0 mg/kg/injection, schedule: Q01DX Z (ip), vehicle: water
  T/C: 114 % of control and 122 % of control
dose: 12.5 mg/kg/injection, schedule: Q01DX Z (ip), vehicle: water
  T/C: 120 % of control
dose: 15.0 mg/kg/injection, schedule: Q01DX Z (ip), vehicle: other
  T/C: 151 % of control
dose: 15.0 mg/kg/injection, schedule: Q01DX Z (ip), vehicle: water
  T/C: 95 % of control
dose: 20.0 mg/kg/injection, schedule: Q01DX001 (ip), vehicle: water
  T/C: 106 % of control
dose: 20.0 mg/kg/injection, schedule: Q01DX Z (ip), vehicle: water
  T/C: 98 % of control and 104 % of control
dose: 20.0 mg/kg/injection, schedule: Q07DX003 (ip), vehicle: water
  T/C: 123 % of control
dose: 22.0 mg/kg/injection, schedule: Q01DX Z (ip), vehicle: carboxymethylcellulose (CMC)
  T/C: 92 % of control
dose: 30.0 mg/kg/injection, schedule: Q01DX001 (ip), vehicle: water
  T/C: 114 % of control
dose: 30.0 mg/kg/injection, schedule: Q02DX Z (ip), vehicle: water
  T/C: 120 % of control
dose: 30.0 mg/kg/injection, schedule: Q02DX Z (oral), vehicle: water
  T/C: 90 % of control
dose: 30.0 mg/kg/injection, schedule: Q03DX Z (ip), vehicle: water
  T/C: 124 % of control
dose: 30.0 mg/kg/injection, schedule: Q07DX003 (ip), vehicle: water
  T/C: 103 % of control
dose: 33.0 mg/kg/injection, schedule: Q01DX Z (ip), vehicle: carboxymethylcellulose (CMC)
  T/C: 114 % of control
dose: 40.0 mg/kg/injection, schedule: Q01DX001 (ip), vehicle: water
  T/C: 114 % of control
dose: 40.0 mg/kg/injection, schedule: Q01DX Z (ip), vehicle: water
  T/C: 98 % of control and 102 % of control
dose: 40.0 mg/kg/injection, schedule: Q01DX Z (oral), vehicle: water
  T/C: 92 % of control
dose: 40.0 mg/kg/injection, schedule: Q03DX Z (ip), vehicle: water
  T/C: 88 % of control
dose: 80.0 mg/kg/injection, schedule: Q01DX001 (ip), vehicle: saline
  T/C: 117 % of control
dose: 80.0 mg/kg/injection, schedule: Q07DX Z (ip), vehicle: saline
  T/C: 114 % of control
dose: 160.0 mg/kg/injection, schedule: Q07DX Z (ip), vehicle: saline
  T/C: 105 % of control

## CCCCCCCCN(C)N=Nc1ccc(C(=O)O)cc1
dose: 25.0 mg/kg/injection, schedule: Q04DX003 (ip), vehicle: other
  T/C: 93 % of control
dose: 50.0 mg/kg/injection, schedule: Q04DX003 (ip), vehicle: other
  T/C: 90 % of control
[1]
  T/C: 102 % of control
dose: 100.0 mg/kg/injection, schedule: Q04DX003 (ip), vehicle: other
  T/C: 92 % of control
[2]
  T/C: 102 % of control
dose: 200.0 mg/kg/injection, schedule: Q04DX003 (ip), vehicle: other
  T/C: 90 % of control
dose: 300.0 mg/kg/injection, schedule: Q01DX009 (ip), vehicle: Klucel (hydroxypropylcellulose) (HPC)
  T/C: 98 % of control
[3]
  T/C: 122 % of control and 90 % of control
dose: 400.0 mg/kg/injection, schedule: Q04DX003 (ip), vehicle: other
  T/C: 95 % of control
dose: 600.0 mg/kg/injection, schedule: Q01DX009 (ip), vehicle: Klucel (hydroxypropylcellulose) (HPC)
  T/C: 98 % of control

## COc1cc(Cl)ccc1NC(=O)C(O)C(O)C(O)C(O)CO (centres undefined)
dose: 100.0 mg/kg/injection, schedule: Q01DX001 (ip), vehicle: other
  T/C: 97 % of control
dose: 100.0 mg/kg/injection, schedule: Q01DX009 (ip), vehicle: other
  T/C: 100 % of control and 103 % of control
dose: 100.0 mg/kg/injection, schedule: Q04DX002 (ip), vehicle: other
  T/C: 98 % of control and 103 % of control
dose: 100.0 mg/kg/injection, schedule: Q04DX003 (ip), vehicle: carboxymethylcellulose (CMC)
  T/C: 103 % of control
dose: 200.0 mg/kg/injection, schedule: Q01DX001 (ip), vehicle: other
  T/C: 90 % of control
dose: 200.0 mg/kg/injection, schedule: Q01DX009 (ip), vehicle: other
  T/C: 94 % of control and 97 % of control
dose: 200.0 mg/kg/injection, schedule: Q04DX002 (ip), vehicle: other
  T/C: 98 % of control and 92 % of control
dose: 200.0 mg/kg/injection, schedule: Q04DX003 (ip), vehicle: carboxymethylcellulose (CMC)
  T/C: 100 % of control
dose: 400.0 mg/kg/injection, schedule: Q01DX001 (ip), vehicle: other
  T/C: 101 % of control
dose: 400.0 mg/kg/injection, schedule: Q01DX009 (ip), vehicle: other
  T/C: 95 % of control and 97 % of control
dose: 400.0 mg/kg/injection, schedule: Q04DX002 (ip), vehicle: other
  T/C: 103 % of control and 113 % of control
dose: 400.0 mg/kg/injection, schedule: Q04DX003 (ip), vehicle: carboxymethylcellulose (CMC)
  T/C: 103 % of control

## OCCc1ccc[nH]1
dose: 75.0 mg/kg/injection, schedule: Q01DX001 (ip), vehicle: saline
  T/C: 105 % of control
dose: 150.0 mg/kg/injection, schedule: Q01DX001 (ip), vehicle: saline
  T/C: 105 % of control
dose: 300.0 mg/kg/injection, schedule: Q01DX001 (ip), vehicle: saline
  T/C: 105 % of control

## CCN(CC)C(=S)N1CCCCC1
[1]
  T/C: 99 % of control
dose: 100.0 mg/kg/injection, schedule: Q04DX002 (ip), vehicle: Klucel (hydroxypropylcellulose) (HPC)
  T/C: 100 % of control
[2]
  T/C: 105 % of control
dose: 200.0 mg/kg/injection, schedule: Q04DX002 (ip), vehicle: Klucel (hydroxypropylcellulose) (HPC)
  T/C: 90 % of control
[3]
  T/C: 108 % of control
dose: 400.0 mg/kg/injection, schedule: Q04DX002 (ip), vehicle: Klucel (hydroxypropylcellulose) (HPC)
  T/C: 110 % of control
